Here are results for 2 compounds from patent US8454982B2, “Stable S-(+)-abscisic acid liquid and soluble granule formulations” (Valent BioSciences Corporation, priority 2007, dated 2013).

One assay concerns Flame Seedless grapes. Nature of the assay: Field table grape coloration. The settings on record: for Number of colored clusters per 4 vines: foliar, 200 gallons/acre. Type of assay: in vivo. The protocol: ABA formulation performance was evaluated in the field using table grape coloration to assess efficacy. Treatments consisted of untreated control, ethephon control (industry standard ethylene-releasing agent), ABA technical (95% ABA solubilized in ethanol), ABA liquid formulation, and ABA water-soluble granule formulation. All treatments had 0.05% v/v Latron B-1956 surfactant included. The three ABA treatments (200 ppm ABA; 200 gallons/acre) and the ethephon control (250 ppm at 200 gallons/acre) were foliar applied with a backpack sprayer at 10 to 20% color development (June 27) on Flame Seedless grapes commercially grown in Arvin, Calif. The numbers of color clusters per 4 vines were assessed at 8 and 11 days after treatment.

In a further assay the test system is Coleus plants. Kind of assay: Greenhouse Coleus wilting (drought tolerance, shelf life). Type of assay: in vivo. The protocol:
ABA formulation performance was evaluated in the greenhouse using Coleus wilting to assess efficacy. Treatments consisted of control, ABA technical (95% ABA solubilized in ethanol), ABA liquid formulation, and ABA water-soluble granule formulation. Coleus plants were grown in four-inch diameter pots to the 6 to 8 leaf stage (n=4 plants/treatment). Water (15 mL/plant) was drench-applied to the control plants, and ABA (15 mL/plant; 250 ppm ABA) was drench applied to ABA treated plants. The plants were held in a greenhouse without irrigation until all plants wilted to a point when they were determined to be unmarketable. The plants were rated daily for the extent of wilting on a scale from 1 (no wilting) to 4 (complete wilting). A rating of 2.5 was the point at which a plant was determined to be unmarketable and the previous day was recorded as the marketable life of that plant in days.

With `CC1=CC(=O)CC(C)(C)[C@@]1(O)/C=C/C(C)=C\C(=O)O` [ABA technical, S-(+)-abscisic acid], the figures for the “Number of colored clusters per 4 vines” value with Flame Seedless grapes (8 days after treatment) and in the assay with Flame Seedless grapes (11 days after treatment) were 9.0 and 11.2, respectively. For the same compound, the “Number of colored clusters, comparison” value in the assay on Flame Seedless grapes (in vivo) is given as “increased the number of colored clusters more than the ethephon control”. The “Days of shelf life after treatment” value in the assay on Coleus plants (drench 15 mL/plant, 250 ppm ABA, no irrigation) was found to be 12 days. For the same compound, the “Coleus wilting / shelf life, comparison” value in the assay with Coleus plants (in vivo) is “delayed wilting and increased shelf life of Coleus plants”.
Turning to `O=P(O)(O)CCCl` [Ethephon control, ethephon, reference compound], the “Number of colored clusters per 4 vines” value in the assay on Flame Seedless grapes (8 days after treatment) is on record as 6.0; in the assay with Flame Seedless grapes (11 days after treatment) it was 6.7.
